Assay results reported in paper PMC8073005, “Antifungal Activity and DNA Topoisomerase Inhibition of Hydrolysable Tannins from Punica granatum L” (International Journal of Molecular Sciences, 2021).
Converted amounts (≈) assume the structure as drawn. “And” between values parts separate entries of the source, which are not always exact repeats. Identical values can stand only once. Like-named read-outs stand apart in the source and are kept apart here.

How the values were obtained:
[1] = system: Colletotrichum acutatum s.s. M146-2; test: MIC, micro-spectrophotometric growth assay (phytopathogens); type: cell-based, Colletotrichum acutatum sensu stricto; settings: Colletotrichum acutatum s.s. M146-2, PDB, 24 °C, dark, imazalil at label dose, read-out: Minimum inhibitory concentration (MIC)
[2] = system: Alternaria alternata AL19; test: as above; type: cell-based; settings: Alternaria alternata AL19; PDB, 24 °C, dark; imazalil at label dose; read-out: Minimum inhibitory concentration (MIC)
Coniella granati M0_C2 = test: as above; type: cell-based; settings: Coniella granati M0_C2; PDB, 24 °C, dark; imazalil at label dose; read-out: Minimum inhibitory concentration (MIC)
Botrytis cinerea B2 = test: as above; type: cell-based; settings: Botrytis cinerea B2; PDB, 24 °C, dark; imazalil at label dose; read-out: Minimum inhibitory concentration (MIC)
Candida parapsilosis 7 = test: MIC, broth microdilution (human pathogens); type: cell-based; settings: Lodderomyces parapsilosis; Candida parapsilosis 7; SDB, 30 °C, 48 h; read-out: Minimum inhibitory concentration (MIC)
Candida albicans 1 = test: MIC, broth microdilution (human pathogens); type: cell-based; settings: Candida albicans 1; SDB, 30 °C, 48 h; read-out: Minimum inhibitory concentration (MIC)
[3] = system: Cryptococcus neoformans ATCC 11240; test: MIC, broth microdilution (human pathogens); type: cell-based; settings: ATCC11240; Cryptococcus neoformans ATCC 11240; SDB, 30 °C, 48 h; read-out: Minimum inhibitory concentration (MIC)
Candida albicans 44 = test: MIC, broth microdilution (human pathogens); type: cell-based; settings: Candida albicans 44; SDB, 30 °C, 48 h; read-out: Minimum inhibitory concentration (MIC)
Aspergillus candidus 3 = test: MIC, broth microdilution (human pathogens); type: cell-based; settings: Aspergillus candidus 3; SDB, 30 °C, 48 h; read-out: Minimum inhibitory concentration (MIC)
Candida albicans 41 = test: MIC, broth microdilution (human pathogens); type: cell-based; settings: Candida albicans 41; SDB, 30 °C, 48 h; read-out: Minimum inhibitory concentration (MIC)
Candida parapsilosis = test: MIC, broth microdilution (human pathogens); type: cell-based; settings: Lodderomyces parapsilosis; Candida parapsilosis; SDB, 30 °C, 48 h; read-out: Minimum inhibitory concentration (MIC)
[4] = system: Saccharomyces cerevisiae 42; test: MIC, broth microdilution (human pathogens); type: cell-based; settings: Saccharomyces cerevisiae 42; SDB, 30 °C, 48 h; read-out: Minimum inhibitory concentration (MIC)
Candida albicans 2 = test: MIC, broth microdilution (human pathogens); type: cell-based; settings: Candida albicans 2; SDB, 30 °C, 48 h; read-out: Minimum inhibitory concentration (MIC)
[5] = system: Cryptococcus neoformans B 3501; test: MIC, broth microdilution (human pathogens); type: cell-based; settings: B3501; Cryptococcus neoformans B 3501; SDB, 30 °C, 48 h; read-out: Minimum inhibitory concentration (MIC)
Candida strains = test: Agar Disk Diffusion Assay, Candida strains; type: cell-based; settings: for share of Candida strains with inhibition zone from 21 to 30 mm: 25 μg; for zone of inhibition at 25 µg/disc: positive controls, for the stated share of Candida strains
[6] = system: Candida albicans ATCC 10321; test: MIC, broth microdilution (human pathogens); type: cell-based; settings: ATCC10321; Candida albicans ATCC 10321; SDB, 30 °C, 48 h; read-out: Minimum inhibitory concentration (MIC)
Candida albicans 40 = test: MIC, broth microdilution (human pathogens); type: cell-based; settings: Candida albicans 40; SDB, 30 °C, 48 h; read-out: Minimum inhibitory concentration (MIC)
Candida albicans SC 5314 = test: MIC, broth microdilution (human pathogens); type: cell-based; settings: SC5314; Candida albicans SC 5314; SDB, 30 °C, 48 h; read-out: Minimum inhibitory concentration (MIC)
[7] = system: Cryptococcus var. grubii H99 serotype A; test: MIC, broth microdilution (human pathogens); type: cell-based; settings: Cryptococcus var. grubii H99 serotype A; SDB, 30 °C, 48 h; read-out: Minimum inhibitory concentration (MIC)
Candida albicans H = test: MIC, broth microdilution (human pathogens); type: cell-based; settings: Candida albicans H; SDB, 30 °C, 48 h; read-out: Minimum inhibitory concentration (MIC)
Cryptococcus 67 = test: MIC, broth microdilution (human pathogens); type: cell-based; settings: Cryptococcus 67; SDB, 30 °C, 48 h; read-out: Minimum inhibitory concentration (MIC)
Candida zeylanoides 33 = test: MIC, broth microdilution (human pathogens); type: cell-based; settings: Dujonia zeylanoides; Candida zeylanoides 33; SDB, 30 °C, 48 h; read-out: Minimum inhibitory concentration (MIC)
Aspergillus candidus 25 = test: MIC, broth microdilution (human pathogens); type: cell-based; settings: Aspergillus candidus 25; SDB, 30 °C, 48 h; read-out: Minimum inhibitory concentration (MIC)
[8] = system: Aspergillus brasiliensis ATCC 16404; test: MIC, broth microdilution (human pathogens); type: cell-based; settings: ATCC16404; Aspergillus brasiliensis ATCC 16404; SDB, 30 °C, 48 h; read-out: Minimum inhibitory concentration (MIC)
[9] = biological target: T1, topoisomerase I from Candida albicans (Candida albicans, UniProt Q00313); test: Topoisomerase I supercoiled DNA relaxation inhibition; type: biochemical
T1 sequence (Q00313 1-778): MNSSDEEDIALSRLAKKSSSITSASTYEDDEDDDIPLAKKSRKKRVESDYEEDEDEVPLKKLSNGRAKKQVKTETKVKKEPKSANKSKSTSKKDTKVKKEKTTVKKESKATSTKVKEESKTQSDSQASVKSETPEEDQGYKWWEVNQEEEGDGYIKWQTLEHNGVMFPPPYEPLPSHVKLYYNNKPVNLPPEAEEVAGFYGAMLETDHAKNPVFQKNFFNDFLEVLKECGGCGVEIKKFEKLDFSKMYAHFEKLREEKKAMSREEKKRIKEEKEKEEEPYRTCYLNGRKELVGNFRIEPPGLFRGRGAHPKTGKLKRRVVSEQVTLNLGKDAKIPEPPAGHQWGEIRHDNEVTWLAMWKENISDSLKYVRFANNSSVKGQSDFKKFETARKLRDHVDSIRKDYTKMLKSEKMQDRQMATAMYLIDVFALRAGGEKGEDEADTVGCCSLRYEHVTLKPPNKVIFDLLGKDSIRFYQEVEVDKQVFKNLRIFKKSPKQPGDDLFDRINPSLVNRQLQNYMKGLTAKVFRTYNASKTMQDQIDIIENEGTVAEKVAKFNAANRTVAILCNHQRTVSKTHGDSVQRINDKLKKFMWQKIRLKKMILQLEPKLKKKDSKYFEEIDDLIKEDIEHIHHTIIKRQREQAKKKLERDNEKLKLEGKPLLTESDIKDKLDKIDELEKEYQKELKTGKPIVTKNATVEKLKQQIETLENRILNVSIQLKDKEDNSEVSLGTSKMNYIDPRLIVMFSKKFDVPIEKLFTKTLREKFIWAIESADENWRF

[10] = system: other genera tested (other fungi strains); test: Agar Disk Diffusion Assay, other genera; type: cell-based; settings: 100 µg
Experimental: The antifungal activity of pomegranate compounds was evaluated against 19 clinically isolated fungal strains, including nine belonging to Candida albicans species, two belonging to Aspergillus genus, one belonging to Cryptococcus genus, and one Saccharomyces cerevisiae. The C. albicans strains were isolated on CHROMID agar, Aspergillus and Cryptococcus genus were isolated on SDA-CAF and one Saccharomyces cerevisiae on SDA. All the isolates were confirmed by matrix-assisted laser desorption ionization (MALDI) time-of-flight mass spectrometry (TOF/MS). Strains from the American Type Culture Collection (ATCC) were included. All strains were maintained in SDB with 20% (w/v) glycerol at −80 °C until use and sub-cultured in SDA before each test.
The preliminary determination of the antifungal activity of the target compounds (punicalagin, punicalin, ellagic acid, and gallic acid) from pomegranate was carried out by means of the agar disk diffusion assay, according to the standard procedure of the Clinical and Laboratory Standards Institute, with slight modifications. Plates containing SDA were uniformly spread with 100 μL of 10^3 conidia/mL of each strain suspension. […] Disks containing fluconazole (25 μg), amphotericin B (25 μg) and DMSO (20 μL) were used as the positive and the negative control, respectively. The antifungal activity of pomegranate compounds was evaluated by measuring the diameter of the clear inhibition zone formed right around the disks after 48 h incubation at 30 ± 1 °C. The experiment was carried out in triplicate.

Compound	MIC ([1]; S.S.M1462) [µM]	MIC (Candida parapsilosis 7) [µM]	MIC (Candida albicans 1) [µM]	MIC [3] [µM]	MIC (Candida albicans 44) [µM]	MIC (Aspergillus candidus 3) [µM]	MIC (Candida albicans 41) [µM]	MIC (Candida parapsilosis) [µM]	MIC [4] [µM]	MIC (Candida albicans 2) [µM]	MIC [5] [µM]	MIC [6] [µM]	MIC (Candida albicans 40) [µM]	MIC (Candida albicans SC 5314) [µM]	MIC [7] [µM]	MIC (Candida albicans H) [µM]	MIC (Cryptococcus 67) [µM]	MIC (Candida zeylanoides 33) [µM]	MIC (Aspergillus candidus 25) [µM]	MIC [8] [µM]	other results
C=CCOC(Cn1ccnc1)c1ccc(Cl)cc1Cl (stereo not shown) [Imazalil, imazalil, reference compound]	0.3 (≈ 0.0892 µg/mL)																				MIC [2]: 0.3 µM (≈ 0.0892 µg/mL); MIC (Coniella granati M0_C2): 0.3 µM (≈ 0.0892 µg/mL); MIC (Botrytis cinerea B2): 0.3 µM (≈ 0.0892 µg/mL)
C[C@@H]1[C@H](O)[C@@H](C)/C=C/C=C/C=C/C=C/C=C/C=C/C=C/[C@H](O[C@@H]2O[C@H](C)[C@@H](O)[C@H](N)[C@@H]2O)C[C@@H]2O[C@](O)(C[C@@H](O)C[C@@H](O)[C@H](O)CC[C@@H](O)C[C@@H](O)CC(=O)O[C@H]1C)C[C@H](O)[C@H]2C(=O)O [Amphotericin B, amphotericin B, reference compound]		0.3 (≈ 0.277 µg/mL)	2.2 (≈ 2.03 µg/mL)	0.1 (≈ 0.0924 µg/mL)	2.2 (≈ 2.03 µg/mL)	0.3 (≈ 0.277 µg/mL)	0.3 (≈ 0.277 µg/mL)	0.1 (≈ 0.0924 µg/mL)	1.1 (≈ 1.02 µg/mL)	4.3 (≈ 3.97 µg/mL)	0.1 (≈ 0.0924 µg/mL)	0.1 (≈ 0.0924 µg/mL)	0.3 (≈ 0.277 µg/mL)	0.1 (≈ 0.0924 µg/mL)	0.1 (≈ 0.0924 µg/mL)	4.3 (≈ 3.97 µg/mL)	0.1 (≈ 0.0924 µg/mL)	0.1 (≈ 0.0924 µg/mL)	0.3 (≈ 0.277 µg/mL)	0.1 (≈ 0.0924 µg/mL)	share of Candida strains with inhibition zone from 21 to 30 mm (Candida strains): 46%; zone of inhibition at 25 µg/disc (Candida strains): 21 to 30 mm
OC(Cn1cncn1)(Cn1cncn1)c1ccc(F)cc1F [Fluconazole, fluconazole, reference compound]		19.6 (≈ 6 µg/mL)	81.6 (≈ 25 µg/mL)	4.9 (≈ 1.5 µg/mL)	81.6 (≈ 25 µg/mL)	9.8 (≈ 3 µg/mL)	81.6 (≈ 25 µg/mL)	9.8 (≈ 3 µg/mL)	4.9 (≈ 1.5 µg/mL)	163 (≈ 50 µg/mL)	4.9 (≈ 1.5 µg/mL)	40.8 (≈ 12.5 µg/mL)	163 (≈ 50 µg/mL)	9.8 (≈ 3 µg/mL)	4.9 (≈ 1.5 µg/mL)	81.6 (≈ 25 µg/mL)	9.8 (≈ 3 µg/mL)	19.6 (≈ 6 µg/mL)	9.8 (≈ 3 µg/mL)	4.9 (≈ 1.5 µg/mL)	share of Candida strains with inhibition zone from 21 to 30 mm (Candida strains): 73%; zone of inhibition at 25 µg/disc (Candida strains): 21 to 30 mm
CC[C@@]1(O)C(=O)OCc2c1cc1n(c2=O)Cc2cc3ccccc3nc2-1 [Camptothecin, camptothecin, reference compound]																					IC50 [9]: 17.8 ± 0.7 µM
O=C(O)c1cc(O)c(O)c(O)c1 [Gallic Acid, gallic acid]	588 (≈ 100 µg/mL)	588 (≈ 100 µg/mL)	294 (≈ 50 µg/mL)	4.4 (≈ 0.749 µg/mL)	294 (≈ 50 µg/mL)	17.6 (≈ 2.99 µg/mL)	294 (≈ 50 µg/mL)	294 (≈ 50 µg/mL)	588 (≈ 100 µg/mL)	294 (≈ 50 µg/mL)	4.4 (≈ 0.749 µg/mL)	294 (≈ 50 µg/mL)	588 (≈ 100 µg/mL)	294 (≈ 50 µg/mL)	4.4 (≈ 0.749 µg/mL)	588 (≈ 100 µg/mL)	8.8 (≈ 1.5 µg/mL)	588 (≈ 100 µg/mL)	17.6 (≈ 2.99 µg/mL)	8.8 (≈ 1.5 µg/mL)	MIC [1]: 587.8 µM (≈ 100 µg/mL); MIC [2]: 587.8 µM and 588 µM; share of Candida strains with inhibition zone from 11 to 20 mm (Candida strains; 100 µg): 73%; MIC (Coniella granati M0_C2): 587.8 µM and 588 µM; MIC (Botrytis cinerea B2): 587.8 µM and 588 µM; share of other fungi strains with inhibition zone from 11 to 20 mm [10]: 25%
